Experimental data reported in paper PMC11868579 (Nature Communications, 2024).
Values joined by “and” are separate entries in the source; they are usually repeats but may differ in a detail not shown here. Equal values may be shown once.

Experiments:
[1] = system: H1299 clone C3-1; experiment: Concentration response of cell survival, clone C3-1, Incucyte; assay type: cell-based, human; settings: clone C3-1, 5 days continuous exposure
Experimental: Real time monitoring of cell growth was performed with the IncuCyte ZOOM live cell imaging system (Essen BioSciences, USA). Cells were seeded in 96 well plates (Corning, cat#353072) and treated on the next day. The resulting phase-contrast images were analysed using IncuCyte ZOOM 2018A software and results were expressed as percentage confluency of cells.
Supplementary Fig. 14 Treatment of the eIF4E-dTAG-degradation model with negative control dTAGV-1 compound. a Plot of concentration responsiveness versus cell survival for H1299 clone C3-1 following 120 hr exposure to different concentrations of dTAGv-1. Cell confluency (%) was calculated using Incucyte Zoom software and plotted as the mean ± SD from 3 biological replicates. b Immunoblot of […]
clone treated with 0.5 µM dTAGV-1 or the negative control dTAGV-1 compound for the indicated times. Vinculin was used as a loading control. The immunoblot shown is representative of 3 biological replicates. c Real-time cell confluency measurements of H1299 parental cells treated with 0.5 or 1 µM of dTAGV-1 or the negative control […]
2) treated with 0.5 or 1 µM of the negative control dTAGV-1 compound. Cells were monitored every 4 hr over a 6-day period. Cell confluency (%) was calculated using Incucyte Zoom software and shown as the mean ± SEM from 3 biological replicates.
(1 picture or pasted object on this page, not shown here)

[2] = biological target: T1, full-length eIF4G:eIF4E (Homo sapiens, UniProt P06730); experiment: eIF4G:eIF4E binding, summary over cell line lysates; assay type: biochemical
T1 construct: endogenous in cells; host or cells: HeLa, SW620 or H1299 cells (lysates; intact H1299 cells in A13)
T1 sequence (P06730 2-217 limits assumed): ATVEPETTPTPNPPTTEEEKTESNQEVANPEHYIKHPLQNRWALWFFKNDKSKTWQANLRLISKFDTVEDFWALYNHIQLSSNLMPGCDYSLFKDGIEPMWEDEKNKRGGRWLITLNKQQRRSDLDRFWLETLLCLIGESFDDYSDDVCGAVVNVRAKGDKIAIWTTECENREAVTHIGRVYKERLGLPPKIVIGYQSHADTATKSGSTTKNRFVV
Experimental: This assay uses plates with carbon electrodes and electro-chemiluminescent labels (SULFO-TAGs) that are conjugated to detection antibodies. When an electric current is applied to the plate electrodes the SULFO-TAG labels will emit light that is measured to quantify analytes in the sample. […] For measuring exogenously expressed FLAG-tagged-eIF4E, 96-well Multiarray SECTOR plates with carbon electrodes (MSD, cat#L15XB) were coated with 25 ul of 4 µg/ml anti-FLAG M2 (Sigma-aldrich, cat#F1804, RRID:AB_262044) in PBS for 1 hr at RT with shaking. The plates were washed with 3 ×150 µl/well MSD wash buffer (cat#R61AA-1; 0.2% Tween-20 in PBS), then blocked with 150 µl/well block buffer (MSD, cat# R93AA) for 1 h. […] The incubated plates were washed 4x in 150 µl in MSD wash buffer and were re-blocked by the addition of 25 μl of blocking buffer containing a 1:500 dilution of the secondary antibody and incubated for 1 hr at RT with rotational shaking. […] Plates were then washed again 4x in 150 µl in MSD wash buffer and 25 μl of a 1:50 dilution of Goat anti-rabbit Sulfo-Tag (MSD, Cat# R32AB-1) in MSD blocking buffer was added and the plates incubated for 1 h at RT with rotational shaking. After a final wash step, 150 μl Read Buffer T4X (MSD, Cat# R92-TC2) was added and the plate read using the MSD QuickPlex SQ 120 plate reader.

[3] = Plasma protein binding, rapid equilibrium dialysis; assay type: in vitro ADME; settings: human plasma, 1 µM, 16 hrs
Experimental: Measurement of aqueous kinetic solubility at pH 7.5
Solubility was measured in 50 mM HEPES, 100 mM NaCl (15% D2O, 85% H2O) in the presence of 1 mM TCEP at pH 7.5. Samples were prepared at 50 mM in DMSO-d6, diluted x 50 into buffer affording nominal concentrations of 1 mM and analysed by 1H quantitative NMR. Spectra were acquired at 300K in 5 mm tubes on a 400 MHz Bruker Avance III HD spectrometer equipped with a BBO-F probe using water suppression (presat/Watergate). A 5 mM sample of 4-hydroxybenzoic acid was used as the qNMR standard. The raw data files were processed using MNova with qNMR […]
Caco-2 permeability Assay
The permeability of Compound 4 was assessed using the CacoReady system.
Compound 4 and control compounds (propranolol, antipyrine, and vinblastine) were incubated at a final concentration of 10 µM in duplicate to either the apical (180 µL) of the monolayer to measure apical to basolateral transport (A > B) across the cell barrier or to the basolateral side (750 µL) to measure the basolateral to apical transport (B > A). […]
Plasma protein binding measured using the rapid equilibrium dialysis (RED) device system. […] Percent bound was calculated as the ([plasma cmpt] / [plasma cmpt + […]

[4] = biological target: T2, eIF4E minor variant D127N (N127) (Homo sapiens, UniProt P06730, D127N); experiment: Isothermal titration calorimetry, eIF4E minor variant; assay type: binding
T2 construct: made in house; host or cells: E. coli BL21-CodonPlus (DE3)-RIPL
T2 sequence (P06730 36-217 D127N): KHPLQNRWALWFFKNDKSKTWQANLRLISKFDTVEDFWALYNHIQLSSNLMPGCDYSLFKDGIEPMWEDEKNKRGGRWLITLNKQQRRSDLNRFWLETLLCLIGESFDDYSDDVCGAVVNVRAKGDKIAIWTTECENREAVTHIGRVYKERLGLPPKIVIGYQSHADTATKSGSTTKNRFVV
Experimental: ITC experiments were performed on either a MicroCal VP-ITC or a MicroCal Auto-ITC200 at 25 °C in a buffer comprising 50 mM HEPES, 100 mM NaCl, 1 mM TCEP and 5% DMSO at pH 7.5. Typical titrations on the MicroCal VP-ITC were performed using 17 × 16.4 µL injections with a 250 s spacing between each injection and with a stirring speed of 307 rpm. Typical titrations on the MicroCal Auto-ITC200 were performed using 12 × 3 µL injections with a 150 s spacing between each injection and with a stirring speed of 750 rpm. ITC data analyses were performed with Origin 7.0 software using the “One Set of Sites” model.

Row | SMILES | IC50 [1] | EC50 ([2]; read-out: EC50s, eIF4G:eIF4E electro-chemiluminescent binding assay, three different cell line lysates) [nM] | IC50 ([2]; read-out: full-length eIF4G:eIF4E IC50, lysates and intact cell engagement assays) [nM] | Plasma protein binding [3] [%] | enthalpic contribution DH ([4]; ITC, eIF4E D127N) | entropic penalty -TDS ([4]; ITC, eIF4E D127N) [kcal/mol] | LE (ligand efficiency) ([4]; minor variant D127N) | Kd ([4]; read-out: eIF4E Kd, ITC, minor variant D127N) [nM]
1 | CC[C@H](C(=O)N1CCCC[C@H]1C(=O)O[C@H](CCc1ccc(OC)c(OC)c1)c1ccccc1OCC(=O)NCCCCCCC(=O)N[C@H](C(=O)N1C[C@H](O)C[C@H]1C(=O)N[C@@H](C)c1ccc(-c2scnc2C)cc1)C(C)(C)C)c1cc(OC)c(OC)c(OC)c1 [dTAG^V-1] | 205 nM and 206 nM |  |  |  |  |  |  | 
2 | CC[C@H](O[C@H](C)CO)c1ccc(-c2ccccc2F)cc1NCCO [Compound 4] |  | 1400 to 2600 | 1000 to 2000 | 98.9 | -12.0 kcal/mol and -12.0 ± 0.5 kcal/mol | 1.4 ± 0.5 | 0.42 (kcal/mol)/heavy atom | 17
